From patent publication US6673827B1, “Methods of treating fungal infections with inhibitors of NAD synthetase enzyme” (priority 1999, dated 2004)
Where two headings read alike, the source gives them in different places.

Legend:
[1] = tested on: Cryptococcus neoformans SLP-BC0012854; assay: In vitro study of inhibition of growth and lethality against yeast (MIC/MLC susceptibility test), isolate H; type: cell-based; conditions: Cryptococcus neoformans, Cryptococcus neoformans, 2nd pair of lines, isolate assigned by line order; for MFC: SLPBC0012854, read-out: Minimum Lethal Conc. (MLC)
[2] = target: T1, NAD synthetase (recombinant protein from B. subtilis; purified) (Bacillus subtilis, UniProt P08164); assay: NAD synthetase enzyme inhibition assay (coupled enzymatic assay, HTS); type: biochemical
T1 construct: made in house
Experimental: NAD Synthetase Enzyme Inhibition Assay-Determination of Test Compound Concentrations Providing 50% Inhibition ([…]) of the Maximum Enzyme Rate
The potential inhibitory activity of the synthetic compounds was determined by the use of a coupled enzymatic assay. The coupled assay involves two steps as summarized below. [drawing 98]
The measurement of inhibitory activities of the test compounds was facilitated by the use of a high through-put screening system (HTS system). The HTS system utilizes an integrated Sagian 2M ORCA robotic system coordinating the functions of a Beckman Biomek 2000 liquid handler and a Molecular Devices SpectraMax Plus spectrophotometer. The 2M ORCA robotic station is responsible for the movement of all hardware and the integration of multiple stations on the worksurface. The Biomek 2000 is programmed to perform all phases of liquid dispensing and mixing. The SpectraMax Plus spectrophotometer is equipped to monitor absorbance in a 96-well plate format.
The Biomek 2000 mixes these components utilizing a predefined mixing program. […] The reaction is monitored by measuring the increase in absorbance at 340 nm (NADH). The linear portion of the reaction is monitored for 180 sec. The initial velocity is determined using Softmax Pro, the software supplied with the Molecular Devices SpectrMax Plus spectrophotometer.
The test compounds were supplied as a stock solution with a concentration of 50 mM dissolved in 100% dimethyl sulfoxide (DMSO). An initial screen was conducted on all compounds using a 2 or 3 concentration screen. The 2 panel screen used concentrations of 0.2 mM and 0.1 mM for the compounds. The 3 panel screen used concentrations of 0.2 mM, 0.1 mM, and 0.05 mM. […] The IC50 values for each compound were determined graphically from a plot of % inhibition versus […].

[3] = tested on: Candida tropicalis ATCC 28707; assay: In vitro study of inhibition of growth and lethality against yeast (MIC/MLC susceptibility test), isolate B; type: cell-based; conditions: Candida tropicalis, 1st pair of lines, isolate assigned by line order; for MFC: ATCC28707, read-out: Minimum Lethal Conc. (MLC)
[4] = tested on: Torulopsis glabrata JHC-BC9951635; assay: In vitro study of inhibition of growth and lethality against yeast (MIC/MLC susceptibility test), isolate E; type: cell-based; conditions: Torulopsis glabrata, 2nd pair of lines, isolate assigned by line order; for MIC / MFC: Nakaseomyces glabratus; for MFC: JHCBC9951635, read-out: Minimum Lethal Conc. (MLC)
[5] = tested on: Torulopsis glabrata ERH-BC9938274; assay: In vitro study of inhibition of growth and lethality against yeast (MIC/MLC susceptibility test), isolate F; type: cell-based; conditions: Torulopsis glabrata, 1st pair of lines, isolate assigned by line order; for MIC / MFC: Nakaseomyces glabratus; for MFC: ERHBC9938274, read-out: Minimum Lethal Conc. (MLC)
[6] = tested on: Candida tropicalis (ATCC 28707-amphotericin B-resistant); assay: Minimum Inhibitory Concentration (MIC) against yeast, broth dilution; type: cell-based; conditions: Candida tropicalis, ATCC28707, 37° C., 20 hours, mean of duplicate
[7] = tested on: Candida tropicalis (ATCC 750); assay: as above; type: cell-based; conditions: Candida tropicalis, ATCC750; 37° C., 20 hours, mean of duplicate
[8] = tested on: Candida albicans KJP-000531594; assay: In vitro study of inhibition of growth and lethality against yeast (MIC/MLC susceptibility test), isolate C; type: cell-based; conditions: Candida albicans, Candida albicans, 1st pair of lines
[9] = tested on: Candida tropicalis ATCC 750; assay: In vitro study of inhibition of growth and lethality against yeast (MIC/MLC susceptibility test), isolate A; type: cell-based; conditions: Candida tropicalis, 2nd pair of lines, isolate assigned by line order; for MFC: ATCC750, read-out: Minimum Lethal Conc. (MLC)
[10] = tested on: Candida albicans (ATCC 10231); assay: Minimum Inhibitory Concentration (MIC) against yeast, broth dilution; type: cell-based; conditions: for MIC: Candida albicans, read-out: MIC Candida albicans (ATCC 10231)
[11] = tested on: Candida albicans LH-000664533; assay: In vitro study of inhibition of growth and lethality against yeast (MIC/MLC susceptibility test), isolate D; type: cell-based; conditions: Candida albicans, Candida albicans, 2nd pair of lines, isolate assigned by line order; for MFC: LH000664533, read-out: Minimum Lethal Conc. (MLC)
[12] = tested on: Cryptococcus neoformans DLB-1027594CNC; assay: In vitro study of inhibition of growth and lethality against yeast (MIC/MLC susceptibility test), isolate G; type: cell-based; conditions: Cryptococcus neoformans, Cryptococcus neoformans, 1st pair of lines, isolate assigned by line order; for MIC / MFC: DLB1027594CNC; for MFC: read-out: Minimum Lethal Conc. (MLC)
[13] = SLPBC0012854, 48 h, read at 48 hr, read-out: Minimum Inhibitory Conc. (MIC), 48 hr.
[14] = SLPBC0012854, 72 h, read at 72 hr, read-out: Minimum Inhibitory Conc. (MIC), 72 hr.
[15] = IC50 (μg/mL) for Inhibit. of NAD Synthetase, table of structures used in the yeast assay (Example 4)
[16] = ATCC28707, 24 h, read at 24 hr, read-out: Minimum Inhibitory Conc. (MIC), 24 hr.
[17] = ATCC28707, 48 h, read at 48 hr, read-out: Minimum Inhibitory Conc. (MIC), 48 hr.
[18] = JHCBC9951635, 24 h, read at 24 hr, read-out: Minimum Inhibitory Conc. (MIC), 24 hr.
[19] = JHCBC9951635, 48 h, read at 48 hr, read-out: Minimum Inhibitory Conc. (MIC), 48 hr.
[20] = ERHBC9938274, 24 h, read at 24 hr, read-out: Minimum Inhibitory Conc. (MIC), 24 hr.
[21] = ERHBC9938274, 48 h, read at 48 hr, read-out: Minimum Inhibitory Conc. (MIC), 48 hr.
[22] = KJP000531594, 24 h, read at 24 hr, isolate not given, assigned by line order and MLC of Table 4B, read-out: Minimum Inhibitory Conc. (MIC), 24 hr.
[23] = KJP000531594, 48 h, read at 48 hr, isolate assigned by line order, read-out: Minimum Inhibitory Conc. (MIC), 48 hr.
[24] = ATCC750, 24 h, read at 24 hr, read-out: Minimum Inhibitory Conc. (MIC), 24 hr.
[25] = ATCC750, 48 h, read at 48 hr, read-out: Minimum Inhibitory Conc. (MIC), 48 hr.
[26] = LH000664533, 24 h, read at 24 hr, read-out: Minimum Inhibitory Conc. (MIC), 24 hr.
[27] = LH000664533, 48 h, read at 48 hr, read-out: Minimum Inhibitory Conc. (MIC), 48 hr.
[28] = 48 h, read at 48 hr, read-out: Minimum Inhibitory Conc. (MIC), 48 hr.
[29] = 72 h, read at 72 hr, read-out: Minimum Inhibitory Conc. (MIC), 72 hr.
[30] = 37° C., 20 hours, mean of duplicate

T1 sequence (P08164 whole entry): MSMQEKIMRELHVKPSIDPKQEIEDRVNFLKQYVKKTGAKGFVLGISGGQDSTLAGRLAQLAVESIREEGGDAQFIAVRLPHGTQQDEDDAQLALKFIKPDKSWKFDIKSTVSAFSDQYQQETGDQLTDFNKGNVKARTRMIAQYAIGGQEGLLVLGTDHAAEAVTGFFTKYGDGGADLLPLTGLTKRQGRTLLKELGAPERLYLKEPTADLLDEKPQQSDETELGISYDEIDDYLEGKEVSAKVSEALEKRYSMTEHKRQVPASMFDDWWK

C[N+](C)(C)c1ccc(CC(=O)OCCCCCCCCOc2ccc(OCc3ccccc3)cc2)cc1.[I-] [Compound 1094]
0.5 µg/mL: MIC [3, 16] | MIC [3, 17] | MIC [4, 18] | MIC [5, 20]
8 µg/mL: MFC [11]
1 µg/mL: MIC [1, 13] | MIC [1, 14] | MIC [4, 19] | Minimum Inhibitory Conc. (MIC), 24 hr. ([4]; read at 24 hr) | MIC [5, 21] | Minimum Inhibitory Conc. (MIC), 24 hr. ([5]; read at 24 hr) | MIC [8, 22] | MIC [9, 24] | MIC [9, 25] | MIC [12, 28] | MIC [12, 29]
31.7 µM: IC50 [2, 15]
0.78 µg/mL: MIC [6] | MIC [7]
6.2 µg/mL: MIC ([10]; ATCC10231, 37° C., 20 hours, mean of duplicate)
20 µM: IC50 [2]
4 µg/mL: MFC [4] | MFC [5] | MFC [9]
2 µg/mL: MFC [1] | MFC [3] | MIC [8, 23] | MIC [11, 26] | MIC [11, 27] | MFC [12]

COC(=O)c1cc2ccccc2n1CCCCCCCOC(=O)Cc1ccc([N+](C)(C)C)cc1 [Compound 984]
0.78 µg/mL: MIC ([10]; ATCC10231, 20 h)

COC(=O)c1cc2cc(OCc3ccccc3)ccc2n1CCCCCCCOC(=O)c1ccc[n+](C)c1 [Compound 976]
3.1 µg/mL: MIC Candida albicans (ATCC 10231) [10, 30]

C[N+](C)(C)c1ccc(CC(=O)OCCCCCCCCn2ccc3cc(OCc4ccccc4)ccc32)cc1 [Compound 749]
1.6 µg/mL: MIC Candida albicans (ATCC 10231) [10, 30]

C[N+](C)(C)C(Cc1ccccc1)C(=O)OCCCCCCCCOc1ccc(OCc2ccccc2)cc1.[I-] (stereo not drawn) [Compound 1230]
31 µM: IC50 [2, 15]
2 µg/mL: Minimum Inhibitory Conc. (MIC), 72 hr. ([1]; read at 72 hr) | MIC [4, 19] | MFC [4] | Minimum Inhibitory Conc. (MIC), 24 hr. ([4]; read at 24 hr) | MIC [5, 20] | MIC [5, 21] | MFC [5] | MIC [8, 23] | MFC ([8]; KJP000531594, isolate assigned by line order, read-out: Minimum Lethal Conc. (MLC)) | Minimum Inhibitory Conc. (MIC), 48 hr. ([11]; read at 48 hr) | MIC [11, 26] | MFC [11] | Minimum Inhibitory Conc. (MIC), 72 hr. ([12]; read at 72 hr)
4 µg/mL: MFC [1] | MIC [11, 27] | MFC [12]
1 µg/mL: MIC [1, 13] | MIC [1, 14] | MFC [3] | MIC [4, 18] | MIC [8, 22] | MFC [9] | MIC [9, 24] | MIC [9, 25] | Minimum Inhibitory Conc. (MIC), 24 hr. ([11]; read at 24 hr) | MIC [12, 28] | MIC [12, 29]
0.5 µg/mL: MIC [3, 16] | MIC [3, 17] | Minimum Inhibitory Conc. (MIC), 48 hr. ([12]; read at 48 hr)

C[n+]1cccc(C(=O)OCCCCCCCCCn2ccc3ccccc32)c1 [Compound 970]
0.8 µg/mL: MIC Candida albicans (ATCC 10231) [10, 30]
20 µM: IC50 ([2]; read-out: IC50: concentration of test compound producing 50% inhibition of the NAD synthetase enzyme rate, Table 1, recombinant B. subtilis NAD synthetase, absorbance at 340 nm)

COC(=O)c1cc2cc(OCc3ccccc3)ccc2n1CCCCCCCCOC(=O)c1ccc[n+](C)c1 [Compound 977]
1.6 µg/mL: MIC Candida albicans (ATCC 10231) [10, 30]

COC(=O)c1cc2ccccc2n1CCCCCCCCOC(=O)Cc1ccc([N+](C)(C)C)cc1 [Compound 985]
1.6 µg/mL: MIC Candida albicans (ATCC 10231) [10, 30]

COC(=O)c1cc2ccccc2n1CCCCCCCCCOC(=O)Cc1ccc([N+](C)(C)C)cc1 [Compound 986]
2.3 µg/mL: MIC Candida albicans (ATCC 10231) [10, 30]
